Laboratory results: patent US6599522B2, “Triglyceride reducing agent” (priority 2000, dated 2003)
Where “and” joins values, the source holds several entries; their conditions need not be identical. Equal values may be shown once. Read-outs that look alike come from different tables or passages of the source. Marks after values point to notes of the source that are not given here.

Key:
hyperlipidemic patients = experiment: Clinical study: effect of the hypolipidemic agent on elevated triglyceride levels in blood; assay type: in vivo, human
Procedure: Effect (in vivo) of the Hypolipidemic Agent on Elevated Triglyceride Levels in Blood-Clinical Study Patients attending the Endocrinology and Metabolism outpatient department of […] Medical College Hospital were included in the study. Patients with baseline serum total cholesterol above 200 mg/dl and/or serum triglycerides above 200 mg/dl after 6-12 weeks of low fat diet, exercise and weight reduction program, were included in the study. The compliance of the subjects for diet, weight and exercise schedules were monitored throughout the study. The number of patients recruited for the study were 37, including a child. There were […] in the age group of 30 to 62 years. Of the 37 patients, 23 patients were diabetic (type two diabetes) and 16 patients had essential hypertension, and two women and nine men were obese, the others being of normal weight. Two men and one person dropped out of the study, due to unknown causes. Of the original patients, 34 completed the study as per the protocol. In the initial visit, patient's height in centimeters, and weight in kilograms were recorded. After noting detailed history, physical examinations were performed on each patient. Informed consent was taken from all patients and, in the case of minors, from their parents. Blood samples were drawn for routine hematology, fasting and post prandial plasma glucose, blood urea, serum creatinine, liver function test and lipid profile. At each visit, the patient's weight and diet and exercise compliance was checked and blood samples for hematology and lipid profile were drawn. The patients were given 20 mg of Vanillin in gelatin capsule once a day before the main meal. At each visit, pill count was done to check the compliance of the drug intake. The data were recorded in the case record form and computer by authorized persons. The data were analyzed statistically.

hyperlipidemic rats = experiment: Dose response spectrum of the hypolipidemic agent, animal assay on hyperlipidemic diet; assay type: in vivo, Wistar male rats; set-up: Serum triglycerides, TOTAL / Serum triglycerides, LDL-VLDL / Serum triglycerides, HDL: unit not given here; settings: six weeks; for Hypocholesterolemic effect, lowering: mainly LDL-VLDL fraction
Source text: Dose Response Spectrum of the Hypolipidemic Agent—Animal Assay: The response in terms of the lowering of triglyceride component in the majority of the human cases were encouraging. This initiated a dose response test in young adult rats to determine a standard response curve. Such a curve would help in choosing the proper doses for further clinical trials and determine the adequacy and nature of the response. The tests were done on groups of young Wistar male rats, statistically distributed on the basis of body weight (125±5 g) into six groups, including a control group. […] The basal hyperlipidemic diet contained (g/100): casein 15, corn starch 40, cane sugar 10, hydrogenated fat 25, refined peanut oil 5, NRC vitamin mixture (choline free) 1, and salt mixture (Bernhardt-Tomarrelli modified) 4. Fat soluble vitamins at desired concentrations were added to the peanut oil. Vanillin was incorporated into the hyperlipidemic diet in replacement of starch at the desired levels. The duration of the test feeding period was six weeks. At the end of the experimental period, the rats were sacrificed and lipid analysis was done using standard procedures.

rats [1] = settings: cited from earlier work
rats [2] = settings: cited from earlier work; remark: listed apart in the source
[3] = man; cited from earlier work
guinea pigs = settings: guinea pig, in vivo; cited from earlier work
rabbits = settings: rabbit, in vivo; cited from earlier work
[4] = 20 mg/day oral, throughout the study
[5] = mean of 10 patients, baseline mean 425.2, p < 0.0005 vs TG1, 20 mg/day

For `COc1cc(C=O)ccc1O` [Vanillin, 4-hydroxy-3-methoxybenzaldehyde], the “Change in serum HDL level” value (hyperlipidemic patients; 20 mg/day) was “no significant change”, the “Adverse effects in patients” value (hyperlipidemic patients; [4]) was “No adverse effects” and the “Routine biochemistry, hematology and liver function tests” value (hyperlipidemic patients; [4]) was “did not show any significant change”. For the same molecule, the “DELTA = (TG1 − TG3)” value (hyperlipidemic patients; individual patient, before treatment minus 6 weeks after treatment, 20 mg/day) was 243 mg/dL and 199 mg/dL and 218 mg/dL and 120 mg/dL and 168 mg/dL and 236 mg/dL and 133 mg/dL and 250 mg/dL and 158 mg/dL and 224 mg/dL, the “(DELTA/TG1) ×100” value (hyperlipidemic patients; individual patient, reduction of serum triglyceride at 6 weeks, 20 mg/day) was 41.68% and 52.15% and 53.96% and 42.25% and 30.65% and 49.58% and 43.18% and 58.14% and 47.02% and 44.44% and the “DELTA = (TG1 − TG3), mean” value (hyperlipidemic patients; mean of 10 patients, 20 mg/day) was 194.9 mg/dL. The “(DELTA/TG1) ×100, mean” value (hyperlipidemic patients; mean of 10 patients, 6 weeks, 20 mg/day) was 46.34%, the “TG2: fasting serum triglyceride level 3 weeks after treatment, mean” value (hyperlipidemic patients; [5]) was 306.0** mg/dl and the “TG3: fasting serum triglyceride level 6 weeks after treatment, mean” value (hyperlipidemic patients; [5]) was 230.3 mg/dL. The “Change from baseline total cholesterol, mean” value (hyperlipidemic patients; mean, 20 mg/day) was 74.5 mg/dL, the “Reduction of serum triglyceride” value (hyperlipidemic patients; patient, about six weeks, 20 mg/day) was “up to 75%” and the “Serum triglyceride after treatment” value (hyperlipidemic patients; patient, initial value 3078 mg/dl, about six weeks, 20 mg/day) was 786 mg/dL. For the same molecule, the Liver total lipids (hyperlipidemic rats; 0.125% and 0.25% in diet) was “significantly higher”, the “Triglycerides in the liver” value (hyperlipidemic rats; 0.125% and 0.25% in diet) was “higher accumulation” and the “Decrease in HDL cholesterol” value (hyperlipidemic rats; 0.125% in diet) was 16%. The “Hypocholesterolemic effect, lowering” value (hyperlipidemic rats; 0.125% in diet) was 18%, the “Serum triglycerides, HDL” value (hyperlipidemic rats; 0.125% in hyperlipidemic diet) was 69.3 ± 7.0 and the “Serum triglycerides, LDL-VLDL” value (hyperlipidemic rats; 0.125% in hyperlipidemic diet) was 128.3 ± 4.1. The “Serum triglycerides, TOTAL” value (hyperlipidemic rats; 0.125% in hyperlipidemic diet) was 197.6 ± 9.74, the “Hypocholesterolemic effect, lowering” value (hyperlipidemic rats; 0.25% in diet) was 12% and the “Serum triglycerides, HDL” value (hyperlipidemic rats; 0.25% in hyperlipidemic diet) was 74.3 ± 10.4. The “Serum triglycerides, LDL-VLDL” value (hyperlipidemic rats; 0.25% in hyperlipidemic diet) was 147.1 ± 6.5, the “Serum triglycerides, TOTAL” value (hyperlipidemic rats; 0.25% in hyperlipidemic diet) was 221.4 ± 16.5 and the “Decrease in serum phospholipids” value (hyperlipidemic rats; 0.5% in diet) was 19%. The “Serum triglycerides, HDL” value (hyperlipidemic rats; 0.5% in hyperlipidemic diet) was 29.8 ± 6.5, the “Serum triglycerides, LDL-VLDL” value (hyperlipidemic rats; 0.5% in hyperlipidemic diet) was 127.0 ± 4.3 and the “Serum triglycerides, TOTAL” value (hyperlipidemic rats; 0.5% in hyperlipidemic diet) was 156.8 ± 10.4. The Adipose fat (hyperlipidemic rats; 1% and 5% levels in diet) was “lowered”, the “Decrease in serum phospholipids” value (hyperlipidemic rats; 1.0% in diet) was 14% and the “Serum triglycerides, HDL” value (hyperlipidemic rats; 1.0% in hyperlipidemic diet) was 41.7 ± 5.5. The “Serum triglycerides, LDL-VLDL” value (hyperlipidemic rats; 1.0% in hyperlipidemic diet) was 104.8 ± 4.9, the “Serum triglycerides, TOTAL” value (hyperlipidemic rats; 1.0% in hyperlipidemic diet) was 146.5 ± 9.33 and the “Serum triglycerides, HDL” value (hyperlipidemic rats; 5.0% in hyperlipidemic diet) was 38.6 ± 4.8. The “Serum triglycerides, LDL-VLDL” value (hyperlipidemic rats; 5.0% in hyperlipidemic diet) was 141.8 ± 10.3, the “Serum triglycerides, TOTAL” value (hyperlipidemic rats; 5.0% in hyperlipidemic diet) was 180.4 ± 3.69 and the Liver weights (hyperlipidemic rats; any of the levels tested (0.125-5% in diet)) was “not affected”. For the same molecule, the “Reduction in serum triglycerides” value (rats [1]; 0.15 mg % vanillin) was 24%, the “Body and organ weights, hematology, and histopathology, test versus control rats” value (rats [2]; 1.0% of diet 16 weeks, 0.1% 27 to 28 weeks, 2.0% and 5.0% one year, 0.5%, 1.0% and 2.0% two years) was “no significant differences” and the Adverse effects (rats [2]; rats, 5% diet for 90 days (earlier study)) was “growth depression and organ enlargement”. The “Daily intake equal to the highest level without adverse effect” value (rats [2]; rats, 5% in diet) was about 2500 mg/kg, the “Highest level consumed without adverse effect” value (rats [2]; rats, level in diet) was 5% and the Adverse effects (rats [2]; rats, oral, once a day 20 mg/kg/d for 126 days) was “no adverse effects”. The Adverse effects (rats [2]; rats, oral, twice per week 300 mg/kg/dose for 14 weeks) was “no adverse effects”, the “Highest no-adverse-effect intake relative to estimated per capita daily intake” value (rats [2]; versus a 60-kg person) was ~14,000 times and the Metabolism and excretion [3] was “converted to vanillic acid in the liver and is excreted in the urine”. For the same molecule, the “Acute oral LD50” value (guinea pigs) was 1400 mg/kg and the “Acute oral LD50” value (rabbits) was 3000 mg/kg.
For `COc1cc(CNC(=O)CCCC/C=C/C(C)C)ccc1O` [capsaicin, reference compound], the “Reduction in serum triglycerides” value (rats [1]; 0.3 mg % capsaicin) is listed as 13%.
